Assay results as given in PMC6954902 (Protein & Cell, 2019).

Columns and labels:
MtEccC5-ATPase3 = target: T1, MtEccC5-ATPase3 (Mycobacterium tuberculosis, UniProt P9WNA5)
T1 construct: gene eccC5

MtEccC2-ATPase3 = target: T2, MtEccC2-ATPase3 (Mycobacterium tuberculosis, UniProt O05450)
T2 construct: gene eccC2

MtEccC3-ATPase3 = target: T3, MtEccC3-ATPase3 (Mycobacterium tuberculosis, UniProt P9WNA9)
T3 construct: gene eccC3
T3 sequence (P9WNA9 1060-1330): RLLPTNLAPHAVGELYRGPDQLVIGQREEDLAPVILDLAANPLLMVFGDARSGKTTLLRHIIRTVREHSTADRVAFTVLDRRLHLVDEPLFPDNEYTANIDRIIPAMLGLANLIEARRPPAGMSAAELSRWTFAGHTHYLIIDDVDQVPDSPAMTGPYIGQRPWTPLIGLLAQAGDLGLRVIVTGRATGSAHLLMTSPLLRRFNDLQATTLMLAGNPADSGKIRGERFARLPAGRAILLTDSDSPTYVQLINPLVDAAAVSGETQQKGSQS

T1 sequence (P9WNA5 1125-1391): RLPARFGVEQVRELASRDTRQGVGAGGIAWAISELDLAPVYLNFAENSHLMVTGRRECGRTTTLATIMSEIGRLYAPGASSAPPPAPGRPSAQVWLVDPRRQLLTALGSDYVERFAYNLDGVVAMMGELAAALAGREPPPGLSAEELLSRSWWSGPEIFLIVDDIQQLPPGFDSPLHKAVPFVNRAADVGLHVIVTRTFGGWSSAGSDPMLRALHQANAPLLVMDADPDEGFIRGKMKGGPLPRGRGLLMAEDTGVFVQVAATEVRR
T2 sequence (O05450 1127-1396 limits assumed): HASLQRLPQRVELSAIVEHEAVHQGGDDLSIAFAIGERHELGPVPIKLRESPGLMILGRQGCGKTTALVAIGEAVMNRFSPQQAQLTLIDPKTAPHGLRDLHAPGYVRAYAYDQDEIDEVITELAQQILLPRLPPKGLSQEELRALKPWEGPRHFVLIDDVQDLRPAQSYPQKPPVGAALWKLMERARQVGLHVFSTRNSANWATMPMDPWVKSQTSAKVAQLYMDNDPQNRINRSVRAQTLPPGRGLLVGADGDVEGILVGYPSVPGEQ

Q: Which results are given for `Nc1ncnc2c1ncn2[C@@H]1O[C@H](COP(=O)(O)OP(=O)(O)OP(=O)(O)O)[C@@H](O)[C@H]1O` [ATP]?
A: X-ray crystal structure (MtEccC5-ATPase3): In our structures, ATP and a magnesium ion bind to the nucleotide-binding site; X-ray crystal structure (MtEccC2-ATPase3): In our structures, ATP and a magnesium ion bind to the nucleotide-binding site; X-ray crystal structure (MtEccC3-ATPase3): In our structures, ATP and a magnesium ion bind to the nucleotide-binding site
